The source of these data is PubChem BioAssay (NCI).

Several values for one entry are separate records, joined by “and”; a condition that tells them apart may be missing. Identical values can stand only once.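 Values below derive from 48-hour exposures of cells grown in 96-well plates, with endpoints linearly interpolated between the two concentrations bracketing the appropriate inhibition level. Here, GI50 denotes the concentration required for 50% inhibition of growth. TGI is the concentration that stops growth completely.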 *1 amine or outer side, *2 acyl side, *3 side chain or, on linkers, in order; H or OH if unused. Where a SMILES comes first, the peptide text is derived from it. Bridges are numbered along the chain shown (N, C = ends). Roman numbers before positions name the chains, in order. [ ]: non-standard residue; d: D form. Actinocin(9to1) = Cc1c2oc3c(C)ccc(C(=O)[*:1])c3nc-2c(C(=O)[*:2])c(N)c1=O; NMeF = CN[CH](Cc1ccccc1)C(=O)O; Sar = CNCC(=O)O

Some test systems named below: SK-MEL-2 melanoma; U251 CNS; MCF7 breast; LOX IMVI melanoma; MDA-MB-435; CCRF-CEM leukemia; BT-549 breast; RPMI-8226 leukemia; MOLT-4 leukemia; SK-MEL-28 melanoma.
Holding throughout (assay): growth of human tumour cells (NCI), 48 h

`Cc1c2oc3c(C)ccc(C(=O)NC4C(=O)NC(C(C)C)C(=O)N5CCCC5C(=O)N(C)CC(=O)N(C)C(Cc5ccccc5)C(=O)OC4C)c3nc-2c(C(=O)NC2C(=O)NC(C(C)C)C(=O)N3CCCC3C(=O)N(C)CC(=O)N(C)C(Cc3ccccc3)C(=O)OC2C)c(N)c1=O` (configuration not stated) (I: TVP[Sar][NMeF] / II: TVP[Sar][NMeF]; ester I:1-I:C, II:1-II:C; linker I:N-II:N via Actinocin(9to1); configuration not given here): the TGI is < 0.01 µM and 0.0326 µM in the assay on SK-MEL-2 melanoma; < 0.0435 µM and 0.159 µM in the assay on U251 CNS; 0.0136 µM with MCF7 breast; less than 0.01 µM in the assay on LOX IMVI melanoma; < 0.01 µM and 0.095 µM in the assay with MDA-MB-435; 0.0102 µM in the assay with CCRF-CEM leukemia. For the same compound, the TGI was 0.151 µM with BT-549 breast, more than 1 µM in the assay on RPMI-8226 leukemia, 0.00414 µM with MOLT-4 leukemia and 0.06 µM in the assay with SK-MEL-28 melanoma. Further, the GI50 was < 0.01 µM and 0.0022 µM with U251 CNS; 0.00126 µM in the assay on MCF7 breast; < 0.01 µM and 0.00103 µM in the assay on LOX IMVI melanoma; 0.000459 µM in the assay on CCRF-CEM leukemia; 0.000346 µM with MOLT-4 leukemia.
With `COc1ccccc1C(=O)N(C)c1ccc(Cl)c(C(=O)OC(C)C)c1`, the TGI in the assay on SK-MEL-2 melanoma, in the assay with U251 CNS, in the assay on MCF7 breast, in the assay with LOX IMVI melanoma, in the assay with MDA-MB-435 and with CCRF-CEM leukemia was more than 100 µM in each case. Further, the TGI in the assay on BT-549 breast is 97.7 µM; in the assay with RPMI-8226 leukemia it was more than 100 µM; with MOLT-4 leukemia, more than 100 µM; with SK-MEL-28 melanoma it was more than 100 µM.
With `Nc1ncc(-c2cccc(S(N)(=O)=O)c2)c2scc(-c3ccc(F)c(Cl)c3)c12`, the GI50 was 5.88 µM in the assay on SK-MEL-2 melanoma; 6.77 µM with U251 CNS; 5.93 µM with MCF7 breast; 4.84 µM in the assay with LOX IMVI melanoma; 4.68 µM in the assay with MDA-MB-435; 6.12 µM in the assay on CCRF-CEM leukemia. Besides, the GI50 in the assay with BT-549 breast is 7.69 µM; in the assay with RPMI-8226 leukemia, 4.92 µM; with MOLT-4 leukemia, 5.35 µM; with SK-MEL-28 melanoma, 8.8 µM. The TGI in the assay with SK-MEL-2 melanoma was 10.9 µM; with U251 CNS, more than 17.5 µM; in the assay with MCF7 breast, 15.9 µM; with LOX IMVI melanoma it was 9.67 µM; with MDA-MB-435 it was 10.1 µM; in the assay on CCRF-CEM leukemia, more than 22.2 µM. Further, the TGI in the assay with BT-549 breast is 15.1 µM; in the assay on RPMI-8226 leukemia it was 14.9 µM; in the assay on MOLT-4 leukemia, more than 19.2 µM; in the assay on SK-MEL-28 melanoma, more than 23.3 µM.
For `O=C1C(Cl)=C(Nc2cccc(C(F)(F)F)c2)C(=O)N1Cc1ccc(Cl)cc1`, the GI50 in the assay with SK-MEL-2 melanoma is 4.02 µM; with U251 CNS it was 0.0371 µM; in the assay with LOX IMVI melanoma, 0.241 µM; with CCRF-CEM leukemia, 0.59 µM; with BT-549 breast, 0.154 µM; with MOLT-4 leukemia, 0.119 µM. In the assay with SK-MEL-28 melanoma, the GI50 was 3.95 µM. Further, the TGI in the assay on SK-MEL-2 melanoma was more than 25.9 µM; in the assay with U251 CNS it was 13.1 µM; in the assay on MCF7 breast, 4.82 µM; in the assay on LOX IMVI melanoma, 5.15 µM; in the assay with MDA-MB-435, 4.46 µM; in the assay with CCRF-CEM leukemia, more than 100 µM. For the same compound, the figures for the TGI in the assay with BT-549 breast, in the assay with MOLT-4 leukemia and in the assay with SK-MEL-28 melanoma were 20.3 µM, more than 100 µM and 23.6 µM, respectively.
Consider `COc1cc(NC(=O)C2=C(N3CCOCC3)/C(=C/c3ccc(Cl)cc3)CC2)cc(OC)c1OC`, for which the GI50 with SK-MEL-2 melanoma is 66.8 µM; with U251 CNS it was 16.8 µM; in the assay on MCF7 breast, more than 100 µM; in the assay on LOX IMVI melanoma it was more than 100 µM; with MDA-MB-435 it was more than 100 µM; in the assay with BT-549 breast, 25.5 µM. Also, the figures for the GI50 in the assay with RPMI-8226 leukemia, in the assay on MOLT-4 leukemia and in the assay with SK-MEL-28 melanoma were 2.97 µM, more than 100 µM and more than 100 µM, respectively. The TGI in the assay with SK-MEL-2 melanoma was more than 100 µM; in the assay with U251 CNS, 59.7 µM; in the assay on MCF7 breast it was more than 100 µM; with LOX IMVI melanoma, more than 100 µM; in the assay with MDA-MB-435 it was more than 100 µM; in the assay with BT-549 breast it was more than 100 µM. Also, the TGI in the assay on RPMI-8226 leukemia, in the assay with MOLT-4 leukemia and in the assay on SK-MEL-28 melanoma was more than 100 µM in each case.
Turning to `O=C(O)/C(=C\c1ccncc1)c1cccc2ccccc12`, the TGI with SK-MEL-2 melanoma, in the assay with U251 CNS, in the assay on LOX IMVI melanoma, in the assay with MDA-MB-435, in the assay with CCRF-CEM leukemia and in the assay on BT-549 breast was more than 100 µM each time. The TGI with RPMI-8226 leukemia, in the assay on MOLT-4 leukemia and in the assay with SK-MEL-28 melanoma was more than 100 µM in each case.
With `COc1cccc2c1n([O-])c1cccc(OC)c1[n+]2=O`, the GI50 is 17.8 µM in the assay on SK-MEL-2 melanoma; 10.4 µM in the assay on U251 CNS; 3.15 µM in the assay on MCF7 breast; 5.19 µM with LOX IMVI melanoma; 10.9 µM in the assay on MDA-MB-435; 3.49 µM in the assay with CCRF-CEM leukemia. Moreover, the GI50 with BT-549 breast is 8.1 µM; in the assay with RPMI-8226 leukemia, 4.67 µM; in the assay on MOLT-4 leukemia, 4.97 µM. For the same compound, the TGI in the assay with SK-MEL-2 melanoma is more than 100 µM; with U251 CNS, 48.2 µM; in the assay with MCF7 breast it was 25.6 µM; in the assay on LOX IMVI melanoma, 27.2 µM; in the assay with MDA-MB-435 it was 36.2 µM; with CCRF-CEM leukemia, 35.7 µM. Also, the TGI is 21.8 µM in the assay on BT-549 breast, 25 µM with RPMI-8226 leukemia and more than 100 µM with MOLT-4 leukemia.
In the case of `CCSc1ccc(C2C(Br)C(=O)N2c2cc(OC)c(OC)c(OC)c2)cc1` (configuration not stated), the GI50 was 0.484 µM with SK-MEL-2 melanoma; 0.345 µM in the assay with U251 CNS; 0.0447 µM in the assay with MCF7 breast; 0.834 µM in the assay with LOX IMVI melanoma; 0.278 µM in the assay with CCRF-CEM leukemia; 0.525 µM in the assay on BT-549 breast. In addition, the GI50 in the assay with RPMI-8226 leukemia is 0.361 µM; in the assay with MOLT-4 leukemia, 0.347 µM; with SK-MEL-28 melanoma, 1.94 µM. Besides, the TGI is more than 100 µM in the assay with SK-MEL-2 melanoma; 39.8 µM in the assay with U251 CNS; 17 µM with MCF7 breast; 16.6 µM in the assay with LOX IMVI melanoma; 18.2 µM in the assay with CCRF-CEM leukemia; 11.8 µM in the assay with BT-549 breast. Moreover, the TGI came out at 4.37 µM with RPMI-8226 leukemia, 88.9 µM with MOLT-4 leukemia and 30 µM with SK-MEL-28 melanoma.
Take `CCCCCn1c(C)cc(/C=C\c2ccc3cc(C)ccc3[n+]2C)c1C`: the GI50 with U251 CNS is 0.0345 µM; in the assay on MCF7 breast it was 0.199 µM; in the assay with LOX IMVI melanoma, 0.0951 µM; in the assay with MDA-MB-435, 0.116 µM; with CCRF-CEM leukemia, 0.0354 µM; in the assay with BT-549 breast, 0.0699 µM. Also, the GI50 in the assay on RPMI-8226 leukemia is 0.0202 µM; in the assay with MOLT-4 leukemia, 0.0769 µM; with SK-MEL-28 melanoma, 0.339 µM. In addition, the TGI in the assay on U251 CNS was found to be 1.52 µM; in the assay with MCF7 breast it was 1.04 µM; in the assay with LOX IMVI melanoma, 1.85 µM; in the assay with MDA-MB-435 it was 1.09 µM; in the assay with CCRF-CEM leukemia, 0.601 µM; in the assay with BT-549 breast it was 0.664 µM. In addition, the values for the TGI in the assay on RPMI-8226 leukemia, in the assay on MOLT-4 leukemia and in the assay with SK-MEL-28 melanoma were 0.322 µM, 0.327 µM and 1.71 µM, respectively.
`C=CC1=C(C)C2=NC1=CC1=NC(=C(CC)/C1=C\O)C=C1N=C3C(=C1C)C(=O)[C@H](C(=O)OC)C3=C1NC(=C2)[C@@H](C)[C@@H]1CCC(=O)O`: the TGI in the assay on SK-MEL-2 melanoma, in the assay with U251 CNS, with MCF7 breast, in the assay with LOX IMVI melanoma, in the assay on MDA-MB-435 and in the assay on CCRF-CEM leukemia was more than 100 µM throughout. The TGI in the assay with BT-549 breast, in the assay on MOLT-4 leukemia and in the assay on SK-MEL-28 melanoma was more than 100 µM in each case.
As to `CC(=O)c1nc2ccccc2n1CC(=O)c1cccc(Cl)c1`, the GI50 in the assay with SK-MEL-2 melanoma was 0.505 µM; with U251 CNS, 0.534 µM; in the assay on MCF7 breast, 0.335 µM; in the assay with LOX IMVI melanoma, 0.59 µM; with CCRF-CEM leukemia, 1.17 µM; in the assay on BT-549 breast, 1.12 µM. For the same compound, the results for the GI50 in the assay with RPMI-8226 leukemia, in the assay on MOLT-4 leukemia and in the assay with SK-MEL-28 melanoma were 0.255 µM, 0.897 µM and 0.437 µM, respectively. For the same compound, the TGI with SK-MEL-2 melanoma was 98 µM; in the assay on U251 CNS it was more than 100 µM; with MCF7 breast, more than 100 µM; with LOX IMVI melanoma, more than 100 µM; with CCRF-CEM leukemia it was more than 26.2 µM; in the assay with BT-549 breast, more than 100 µM. Further, the results for the TGI in the assay on RPMI-8226 leukemia, in the assay on MOLT-4 leukemia and in the assay on SK-MEL-28 melanoma were 14.3 µM, 26.7 µM and more than 54.3 µM, respectively.
`NC(=S)NN=C1CSSC1`: the GI50 is 3.23 µM in the assay with SK-MEL-2 melanoma; 3.66 µM with U251 CNS; 2.85 µM in the assay with MCF7 breast; 5.79 µM with MDA-MB-435; 3.77 µM in the assay on CCRF-CEM leukemia; 3.37 µM in the assay with BT-549 breast. Moreover, the GI50 was 11.4 µM in the assay with RPMI-8226 leukemia, 3.75 µM in the assay on MOLT-4 leukemia and 4.67 µM in the assay on SK-MEL-28 melanoma. Further, the TGI in the assay on SK-MEL-2 melanoma was 18.9 µM; in the assay on U251 CNS, 23.1 µM; in the assay with MCF7 breast it was 17.6 µM; in the assay with MDA-MB-435, 44.7 µM; with CCRF-CEM leukemia it was more than 100 µM; with BT-549 breast, 10.1 µM. In addition, the values for the TGI in the assay with RPMI-8226 leukemia, in the assay with MOLT-4 leukemia and with SK-MEL-28 melanoma were 55.6 µM, 43 µM and 25.9 µM, respectively.
